Results from publication PMC9369295, “Key Residues Affecting Binding Affinity of Sirex noctilio Fabricius Odorant-Binding Protein (SnocOBP9) to Aggregation Pheromone” (International Journal of Molecular Sciences, 2022).
Entries after “also recorded” stand apart in the source; their conditions may differ. Where two headings read alike, the source gives them in different places.

Tests used:
[1] = target: SnocOBP9WT (Sirex noctilio, UniProt A0A857N3E7); test: Fluorescence competitive binding assay with 1-NPN probe, wild-type protein
[2] = target: SnocOBP9F71A (Sirex noctilio, UniProt A0A857N3E7, F92A); test: Fluorescence binding assay with 1-NPN probe, mutant F71A
From the text: (§1) To measure the binding affinity of the ligand to recombinant SnocOBP9, 1-NPN was selected as a fluorescent probe. Eleven host volatiles ((−)-Limonene, (+)-Limonene, 3-Carene, Alpha-Pinene and Beta-Pinene, Camphene, Beta-Myrcene, Beta-Ocimene, Sabinene, Hexanal and Eucalyptol), three insect pheromones ((Z)-3-Decen-ol, (Z)-4-Decen-ol and (E, E)-2,4-decadienal) and six symbiotic fungal volatile (Cyclopentanone, Geraniol 2-Hexene, (−)-Globulol, Linalol and 1-(3-ethylphenyl)ethenone) compounds were selected to bind with recombinant SnocOBP9. A multi-scan Spectrum Molecular Device Spectra Max i3 Fluorescence Spectrophotometer (Thermo Scientific, Wilmington, DE, USA) was used to conduct fluorescence competitive binding assays with an excitation wavelength of 337 nm. The emission spectra were recorded between 390 and 500 nm. The parameters were selected such that the slit widths for both excitation and emission were 10 nm. […] Intensity values corresponding to the maximum fluorescence emission were plotted against the free ligand concentrations to calculate the dissociation constant. Assuming the activity of the protein was 100%, and the stoichiometric ratio between the protein and the ligand was 1:1 when saturated, the bound ligand was determined from the fluorescence intensity value. The K1-NPN value was calculated by linearizing the curve using Scatchard plots. […]

[3] = target: SnocOBP9L116A (Sirex noctilio, UniProt A0A857N3E7, L137A); test: Fluorescence binding assay with 1-NPN probe, mutant L116A
From the text: as §1

[4] = target: SnocOBP9F74A (Sirex noctilio, UniProt A0A857N3E7, F95A); test: Fluorescence binding assay with 1-NPN probe, mutant F74A
From the text: as §1

[5] = target: SnocOBP9F57A (Sirex noctilio, UniProt A0A857N3E7, F78A); test: Fluorescence binding assay with 1-NPN probe, mutant F57A
From the text: as §1

[6] = target: SnocOBP9M54A (Sirex noctilio, UniProt A0A857N3E7, M75A); test: Fluorescence binding assay with 1-NPN probe, mutant M54A
From the text: as §1

[7] = protein and 1-NPN both 2 μM, ligand titrated to 1–20 μM, read-out: IC50

Chain of SnocOBP9WT (A0A857N3E7 entry or part of it): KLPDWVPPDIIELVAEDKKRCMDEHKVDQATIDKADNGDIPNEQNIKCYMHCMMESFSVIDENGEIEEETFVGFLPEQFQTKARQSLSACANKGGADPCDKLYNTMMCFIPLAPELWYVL
Chain of SnocOBP9L116A (A0A857N3E7 entry or part of it L137A): as the sequence (A0A857N3E7 entry or part of it) above, with L116A counted along it
Chain of SnocOBP9F71A (A0A857N3E7 entry or part of it F92A): as the sequence (A0A857N3E7 entry or part of it) above, with F71A counted along it
Chain of SnocOBP9F74A (A0A857N3E7 entry or part of it F95A): as the sequence (A0A857N3E7 entry or part of it) above, with F74A counted along it
Chain of SnocOBP9M54A (A0A857N3E7 entry or part of it M75A): as the sequence (A0A857N3E7 entry or part of it) above, with M54A counted along it
Chain of SnocOBP9F57A (A0A857N3E7 entry or part of it F78A): as the sequence (A0A857N3E7 entry or part of it) above, with F57A counted along it

Structure (SMILES) | IC50 [1, 7] [µM] | IC50 [1] [µM] | further results
CC(C)=CCC/C(C)=C/CO [Geraniol] |  | > 20 | 
C=C(C)[C@H]1CC=C(C)CC1 [(+)-Limonene] |  | 6.09 ± 1.43 | Ki [1]: 4.87 ± 0.94 µM
C=C/C(C)=C/CC=C(C)C [Beta-Ocimene] | > 20 |  | 
C=CC(C)(O)CCC=C(C)C (stereo not shown) [Linalool] |  | > 20 | 
C=C1CCC2CC1C2(C)C (stereo not drawn) [Beta-Pinene] |  | > 20 | 
C=C(C)[C@@H]1CC=C(C)CC1 [(−)-Limonene] |  | 6.95 ± 0.61 | Ki [1]: 5.5 ± 0.49 µM
c1ccc(Nc2cccc3ccccc23)cc1 [1-NPN, N-phenyl-1-naphthylamine, reference compound] |  |  | Kd [2]: 1.27 ± 2.42 µM; Kd [3]: 17.5 ± 2.41 µM; Kd [4]: 18.4 ± 1.66 µM; Kd [5]: 4.49 ± 0.82 µM; Kd [1]: 6.87 ± 0.73 µM; Kd [6]: 7.61 ± 0.92 µM
CCCCCC=O [Hexanal] |  | > 20 | 
CC1=CCC2CC1C2(C)C (stereo not drawn) [Alpha-Pinene] |  | > 20 | 
CCCCCC/C=C\CCO [Z3D, (Z)-3-decen-ol] | 1.92 ± 0.14 |  | binding affinity (fluorescence competitive assay) ([2]; mutant PHE71 to ALA, Ki could not be calculated): no binding affinity; also recorded: never decreased below 50%; binding affinity (fluorescence competitive assay) ([3]; mutant LEU116 to ALA, Ki could not be calculated): no binding affinity; also recorded: never decreased below 50%; binding affinity (fluorescence competitive assay) ([4]; mutant PHE74 to ALA, Ki could not be calculated): no binding affinity; also recorded: never decreased below 50%; Ki [5]: 5.61 ± 0.5 µM; Ki ([1]; protein and 1-NPN both 2 μM, ligand titrated to 1–20 μM, read-out: Ki): 1.53 ± 0.09 µM; binding affinity (fluorescence competitive assay) ([6]; mutant MET54 to ALA, Ki could not be calculated): no binding affinity; also recorded: never decreased below 50%

The next lines start with results.

IC50 [1, 7] [µM] | Structure (SMILES) | IC50 [1] [µM] | further results
> 20 | CCCCC/C=C\CCCO [(Z)-4-Decen-ol] |  | 
> 20 | O=C1CCCC1 [Cyclopentanone] |  | 
> 20 | C[C@@H]1CC[C@@H]2[C@@H]1[C@H]1[C@@H](CC[C@@]2(C)O)C1(C)C [(−)-Globulol] |  | 
> 20 | CCc1cccc(C(C)=O)c1 [1-(3-ethylphenyl)ethenone] |  | 
> 20 | CC1=CCC2C(C1)C2(C)C (stereo not shown) [3-Carene] |  | 
> 20 | C=CC(=C)CCC=C(C)C [Beta-Myrcene] |  | 
> 20 | CC=CCCC [2-Hexene] |  | 
> 20 | C=C1CCC2(C(C)C)CC12 (stereo not shown) [Sabinene] |  | 
> 20 | C=C1C2CCC(C2)C1(C)C (stereo not shown) [Camphene] |  | 
> 20 | CCCCC/C=C/C=C/C=O [(E, E)-2,4-Decadienal] |  | 
> 20 | CC12CCC(CC1)C(C)(C)O2 [Eucalyptol] |  | 
